Assay: wn = mass fraction of the nth substance listed
Conditions: 295 K; for surface tension liquid-gas: Wilhelmi plate; for mass density / viscosity: 101.3 kPa, Liquid; for mass density: Buoyancy - hydrostatic balance; for viscosity: Concentric cylinders viscometry

N#C[S-].[K+] [potassium thiocyanate] + O
Conditions	mass density [kg/m3]	surface tension liquid-gas [mN/m]	viscosity [mPa·s]
w1 = 0.03	1013	67.25	0.834
w1 = 0.05	1022	61.98	0.845
w1 = 0.07	1031	58.59	0.825
w1 = 0.1	1047	57.2	0.843
w1 = 0.2	1100	57.79	0.881
w1 = 0.3	1157	–	0.916
w1 = 0.4	1218	55.45	1.101
w1 = 0.5	1283	56.47	1.321
w1 = 0.6	1353	62.93	1.979
w1 = 0.65	1392	73.26	2.588
w1 = 0.68	1414	74.62	3.125
